Results on one sequence are retold here after patent US8178506B2, “Oligomeric compounds and compositions for use in modulation of small non-coding RNAs” (Regulus Therapeutics Inc., priority 2003, dated 2012).

The test system of the data set is ob/ob mice. Briefly: ob/ob mice: plasma parameters, food consumption, marker gene mRNA. The class given is in vivo, mouse. The settings on record: ob/ob mice, 25 mg/kg s.c. two times per week, 6 weeks. Put shortly:
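Male C57Bl/6J ob/ob mice received oligomeric compound or control at 25 mg/kg s.c. twice weekly, for 4 weeks on a 10-15% fat diet or for 6 weeks on high-fat diet. Plasma glucose and insulin were measured at 0, 2 and 4 weeks; i.p. glucose/insulin tolerance tests were run; serum lipids, liver triglycerides and histology were assessed, with liver, BAT and WAT mRNA quantified by real-time PCR.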

Consider “CTAGTGGTCCTAAACATTTCAC (chemistry not given here) [ISIS 327878, uniform 2′-MOE PS; targets mir-203]”, for which the “plasma glucose levels (fed)” value is reported as “reduced beginning at approximately four weeks after the start of treatment”.
